Assay results: US6737085B2, “Apocynum venetum extract for use as antidepressant” (Tokiwa Phytochemical Co., Ltd., priority 2000, dated 2004)
Structures can show the parent of a compound that is named as a salt.

Tests used:
Male CD rats [1] = test: forced swimming test, acute administration; assay type: in vivo
Experimental: A common method for evaluating antidepressant effect called as the forced swimming test (Porsolt et al., Nature. 266, 730-732, (1977)) was used as follows. Male CD rats (230-250 g) were used in the tests. Forty animals were divided into groups of 8 animals treated with 30 mg/kg imipramine, 125 mg/kg, 250 mg/kg and 500 mg/kg Apocynum extract and purified water. Test solutions were orally administered 24 h, 5 h and 1 h before testing. Rats were forced to swim for 15 min in a Plexiglas cylinder (40×18 cm i.d.) containing water at 25° C. at a level of 17 cm so that they preliminarily learned that they could not escape from the cylinder. […] All the tests were performed between 1-3 p.m. The images in the tapes were evaluated by a person who was not aware of the treatment of each group.
Test solutions were prepared by dissolving or suspending Apocynum extract prepared in Example 2 in purified water or dissolving imipramine-HCl (imipramine is a known tricyclic antidepressant) in purified water, and administered at a dose of 10 ml/kg body weight. The results from 8 experimental animals in each group were expressed in mean ”SEM. Statistic significance as compared with control group was determined by ANOVA and multiple comparison tests were made by Fisher-PLSD (p<0.05:*).

Male CD rats [2] = test: forced swimming test, repeated administration; assay type: in vivo
Experimental: A common method for evaluating antidepressant effect called as the forced swimming test (Porsolt et al., Nature. 266, 730-732, (1977)) was used in the same manner as in Example 3. Male CD rats (230-250 g) were used in the tests. Forty animals were divided into groups of 8 animals treated with 20 mg/kg imipramine, 30 mg/kg, 60 mg/kg and 125 mg/kg Apocynum extract and purified water. Test solutions were orally administered between 3-4 p.m. daily. Rats were forced to swim for 15 min in a Plexiglas cylinder (40×18 cm i.d.) containing water at 25° C. at a level of 17 cm so that they preliminarily learned that they could not escape from the cylinder. […] All the tests were performed between 1-3 p.m. The images in the tapes were evaluated by a person who was not aware of the treatment of each group.
Test solutions were prepared by dissolving or suspending Apocynum extract prepared in Example 2 in purified water or dissolving imipramine-HCl (imipramine is a known tricyclic antidepressant) in purified water, and administered at a dose of 10 ml/kg body weight. The results from 8 experimental animals in each group were expressed in mean±SEM. Statistic significance as compared with control group was determined by ANOVA and multiple comparison tests were made by Fisher-PLSD (p<0.05:*).

Structure (SMILES): CN(C)CCCN1c2ccccc2CCc2ccccc21 [Imipramine, imipramine-HCl]
- Inactive period (seconds) (Male CD rats [1]; 30 mg/kg orally 24 h, 5 h and 1 h before testing, 5 min swim, mean±SEM, n=8, control 209 ± 20, * p<0.05): 137 ± 18* seconds
- inactive period as compared with control group (Male CD rats [1]; 30 mg/kg, acute oral administration, ANOVA, Fisher-PLSD p<0.05): significantly shortened
- Inactive period (seconds) (Male CD rats [2]; 20 mg/kg orally daily, repeated, 5 min swim 1 h after final administration, mean±SEM, n=8, control 161.54 ± 16.5, * p<0.05): 97.91 ± 9.6* seconds
- inactive period as compared with control group (Male CD rats [2]; 20 mg/kg, repeated oral administration, ANOVA, Fisher-PLSD p<0.05): significantly shortened
